In paper PMC4917951, “Designing, construction and characterization of genetically encoded FRET-based nanosensor for real time monitoring of lysine flux in living cells” (Journal of Nanobiotechnology, 2016):

Key:
[1] = molecular target: T1, FLIPK sensor protein (CFP-LAO-YFP) (Salmonella typhimurium, UniProt P02911); assay: In vitro ligand specificity of FLIPK (FRET ratio with amino acids); assay type: binding, Salmonella enterica serovar typhimurium LT2; conditions: amino acids at 1 and 10 mM, purified FLIPK
T1 construct: The first 22 amino acids (signal peptides) were removed by the help of a SignalP 4.1 server; (His)6 tag (from pRSET-B) (N); made in house; host or cells: E. coli BL21 (DE3), pRSET-B vector
Method: (§1) Specificity of the sensor protein was measured by using five amino acids, arginine, leucine, lysine, ornithine and histidine at three different concentrations i.e. 0, 1.0 and 10 mM, each. FRET measurement was carried out by using a microplate reader. The excitation filter/slit used was 430 nm/20 nm and emission filters/slits for CFP and YFP were 485 nm/20 nm and 535 nm/25 nm, respectively. 180 µl of diluted sensor protein and 20 µl of substrate were taken in different well. Affinity of sensor protein was monitored by using different concentrations of lysine. All analysis was performed in 20 mM PBS buffer (pH 7.5).

[2] = system: E. coli BL21 (DE3) cells expressing FLIPK; assay: In vivo FRET measurement in FLIPK-expressing bacterial cell suspension; assay type: cell-based; conditions: for change in FRET ratio of bacterial cell suspension (in vivo specificity): incubation with amino acids for 45 min
Method: In vivo analysis was performed by following the earlier protocols. […] Cultures were incubated in Luria Bertoni broth in baffled Erlenmeyer flasks for 48 h in the dark at 20 °C temperature in shaker incubator and then stored at 4 °C for overnight to ensure the proper folding of the fluorescent proteins. Then starved of nitrogen in M9 medium at 37 °C for 2 h and adjusted to OD600 3.5 and kept in 20 mM PBS buffer solution at pH 7.5. Then 180 µl of cells were dispended in the wells of microplate. 20 μl of 10 mM lysine in nitrogen starved medium grown cells were added and the fluorophores emissions were recorded for 45 min. For monitoring the accumulation rates, the injection module of microplate reader was used. Similar procedure was followed with other amino acids (arginine, ornithine, histidine) to see the specificity of FLIPK.

[3] = molecular target: T2, FLIPK-30µ (Salmonella enterica, UniProt P02911, S94A); assay: In vitro FRET titration of purified CFP-LAO-YFP sensor with lysine in 20 mM PBS buffer pH 7.5, YFP/CFP (535/485 nm) emission ratio in a microplate reader, fitted to a simple binding isotherm.; conditions: n = 3
T2 construct: gene argT; LAO without first 22 residues (signal peptide), CFP at N-terminus and YFP at C-terminus, N-terminal (His)6 tag, pRSET-B
T2 sequence (P02911 23-260 S94A): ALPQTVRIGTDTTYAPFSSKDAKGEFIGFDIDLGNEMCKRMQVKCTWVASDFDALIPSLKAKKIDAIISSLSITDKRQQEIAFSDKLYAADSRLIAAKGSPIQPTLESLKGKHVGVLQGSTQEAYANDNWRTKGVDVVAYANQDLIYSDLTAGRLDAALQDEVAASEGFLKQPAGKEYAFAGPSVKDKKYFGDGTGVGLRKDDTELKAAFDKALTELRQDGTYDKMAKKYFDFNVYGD
Method: as §1
(§2) To determine the Kd of the FLIPK sensors, sensor protein was mixed with different concentrations of lysine in 20 mM PBS buffer (pH 7.5) and YFP/CFP ratio was recorded. By using the ratio change on ligand binding, binding constants (Kd) were determined by fitting ligand titration curve in a simple binding isotherm: S=(r-rapo)/(rsat-rapo)=L/Kd+L , where S is saturation; [L] is ligand concentration; r is ratio; rapo is ratio in the absence of ligand and rsat is ratio at saturation with ligand. All analyses were carried out with three independent protein preparations. FRET was used to characterize the sensor protein with various parameters. The FRET ratio was determined as fluorescence intensity at 535 nm (YFP) divided by fluorescence intensity at 485 nm (CFP).

[4] = molecular target: T3, FLIPK-2 m (Salmonella enterica, UniProt P02911, D183I); assay: as above; conditions: n = 3
T3 construct: gene argT; LAO without first 22 residues (signal peptide), CFP at N-terminus and YFP at C-terminus, N-terminal (His)6 tag, pRSET-B
T3 sequence (P02911 23-260 D183I): T2 sequence (P02911 23-260 S94A)
Method: as §1, §2

[5] = molecular target: T4, FLIPK-306µ (Salmonella enterica, UniProt P02911, R99L); assay: as above; conditions: n = 3
T4 construct: gene argT; LAO without first 22 residues (signal peptide), CFP at N-terminus and YFP at C-terminus, N-terminal (His)6 tag, pRSET-B
T4 sequence (P02911 23-260 R99L): T2 sequence (P02911 23-260 S94A)
Method: as §1, §2

[6] = molecular target: T5, FLIPK-142µ (Salmonella enterica, UniProt P02911, Y36A); assay: as above; conditions: n = 3
T5 construct: gene argT; LAO without first 22 residues (signal peptide), CFP at N-terminus and YFP at C-terminus, N-terminal (His)6 tag, pRSET-B
T5 sequence (P02911 23-260 Y36A): T2 sequence (P02911 23-260 S94A)
Method: as §1, §2

[7] = molecular target: T6, FLIPK-14 µ (Salmonella enterica, UniProt P02911, F74A); assay: as above; conditions: n = 3
T6 construct: gene argT; LAO without first 22 residues (signal peptide), CFP at N-terminus and YFP at C-terminus, N-terminal (His)6 tag, pRSET-B
T6 sequence (P02911 23-260 F74A): T2 sequence (P02911 23-260 S94A)
Method: as §1, §2

[8] = molecular target: T7, FLIPK-97µ (FLIPK, WT) (Salmonella enterica, UniProt P02911); assay: as above; conditions: n = 3
T7 construct: gene argT; LAO without first 22 residues (signal peptide), CFP at N-terminus and YFP at C-terminus, N-terminal (His)6 tag, pRSET-B
Method: as §1, §2

[9] = molecular target: lysine binding periplasmic protein (LAO); set-up: method as in PMID 1400387; conditions: read-out: Kd for lysine by equilibrium dialysis; cited from earlier work
[10] = system: S. cerevisiae/URA3 strain BY4742 expressing FLIPK; assay: Confocal FRET imaging of lysine uptake in FLIPK-expressing yeast cells; assay type: cell-based
Method: For expression of FLIPK, S. cerevisiae/URA3 strain BY4742 was used as the eukaryotic host system. The yeast cells were grown and transformed by pYES-DEST-CFP-LAO-YFP vector in which the expression of CFP-LAO-YFP gene was controlled by GAL1 promoter. The transformed yeast cells were grown for 3–5 days in Synthetic Defined (SD)-growth and 1 % galactose as inducer. Imaging of expressed yeast cells were performed on confocal microscope (Leica DMRE) equipped with a confocal head TCS-SPE (Leica, Wetzlar, Germany). The yeast cells were fixed on glass slides by using medical adhesive rinsed with the growth medium and covered by a cover slip. To measure the lysine in yeast cells, dual emission intensity ratio was recorded by using LAS-AF software (Leica, Wetzlar, Germany) with 436 nm/20 nm excitation, two emission filters i.e. 480 nm/40 nm for CFP and 535/30 nm for YFP. For recording the data, FRET sensitized emission tool without background subtraction of the Leica confocal software. The data was further processed by using Adobe Photoshop. Images of single cell and multiple cells were captured by selecting the region of interest (ROI). Similar procedure was followed for the imaging of expressed bacterial cells.

N=C(N)NCCC[C@H](N)C(=O)O [arginine]
change in FRET ratio of FLIPK (ligand specificity) [1]: non-significant change in FRET ratio | change in FRET ratio of bacterial cell suspension (in vivo specificity) [2]: did not change the FRET ratio

N[C@@H](Cc1c[nH]cn1)C(=O)O [histidine]
change in FRET ratio of FLIPK (ligand specificity) [1]: non-significant change in FRET ratio | change in FRET ratio of bacterial cell suspension (in vivo specificity) [2]: did not change the FRET ratio

CC(C)C[C@H](N)C(=O)O [leucine]
change in FRET ratio of FLIPK (ligand specificity) [1]: non-significant change in FRET ratio

NCCCC[C@H](N)C(=O)O [lysine, L-lysine]
Kd [3]: 30 µM | Kd [4]: 2000 µM | Kd [5]: 306 µM | Kd [6]: 142 µM | Kd [7]: 14 µM | Kd [8]: 97 µM

NCCCC[C@H](N)C(=O)O [lysine]
change in FRET ratio of FLIPK (ligand specificity) [1]: significant increase in the FRET ratio | Kd [9]: 0.015 µM | time after which FRET ratio increased distinctly ([2]; 10 mM lysine added externally): 5 min | time at which FRET ratio of the cell suspensions saturated ([2]; 10 mM lysine added externally, 20 mM PBS buffer): 45 min | time within which uptake of lysine saturated ([2]; at 10 mM): 40 to 45 min | change in FRET ratio of bacterial cell suspension (in vivo specificity) [2]: major change | increase of 535 nm/485 nm emission intensity ratio ([10]; 100 mM extracellular lysine, single yeast cell): 2.0 | time up to which 535 nm/485 nm ratio increased before saturation ([10]; after addition of lysine): 255 s

NCCC[C@H](N)C(=O)O [ornithine]
change in FRET ratio of FLIPK (ligand specificity) [1]: non-significant change in FRET ratio | change in FRET ratio of bacterial cell suspension (in vivo specificity) [2]: did not change the FRET ratio
